“And” between values parts separate entries of the source, which are not always exact repeats. Equal values may be shown once.
How the values were obtained:
[1] = xn = mol fraction of the nth substance listed; settings: 100 kPa

OCC(F)(F)C(F)(F)F
100 kPa
Settings | viscosity [mPa·s]
298.15 K | 3.367
323.15 K | 1.518

O=CC(Cl)(Cl)Cl
viscosity
Settings | 298.15 K | 308.15 K | 313.15 K | 318.15 K | 323.15 K
101 kPa | 1.055 mPa·s and 1.055 mPa·s (2×) | 0.9017 mPa·s | 1.009 mPa·s and 0.8411 mPa·s | 0.934 mPa·s | 0.764 mPa·s and 0.7641 mPa·s and 0.869 mPa·s
101.33 kPa | 1.055 mPa·s | – | – | – | 0.7641 mPa·s

CCCC[N+]1(C)CCCCC1.O=S(=O)([N-]S(=O)(=O)C(F)(F)F)C(F)(F)F
Settings | viscosity [mPa·s]
298.15 K, 101 kPa | 178.5

CCCCCCCCCCCCCCCC
Settings | viscosity [mPa·s]
293.15 K, 100 kPa | 3.408
293.15 K, 101 kPa | 3.408
293.15 K, 102 kPa | 3.48
293.2 K, 101.3 kPa | 3.507
298.15 K, 101 kPa | 3.002
303.15 K, 101 kPa | 2.703
303.2 K, 101.3 kPa | 2.78
308.15 K, 101.33 kPa | 2.381
318.15 K, 100 kPa | 1.996
318.15 K, 101 kPa | 1.996
318.15 K, 101.33 kPa | 1.92
318.16 K, 101 kPa | 2.039
323.15 K, 102 kPa | 1.85

CCCCCCCCCCCCCC[P+](CCCC)(CCCC)CCCC.CCCCCCCCCCCCc1ccccc1S(=O)(=O)[O-]
101 kPa
Settings | viscosity [mPa·s]
313.15 K | 1480
323.15 K | 750

CC(=O)OCc1ccccc1
Settings | viscosity [mPa·s]
323.15 K, 101.33 kPa | 1.23

CC(C)C(=O)O
viscosity [mPa·s]
Settings | 293.15 K | 301.15 K | 302.15 K | 303.15 K | 305.15 K | 308.15 K | 311.15 K | 313.15 K | 315.15 K
101 kPa | – | 1.168 | 1.148 | – | 1.099 | 1.047 | 1.008 | 0.9841 | 0.9512
101.33 kPa | 1.326 | – | – | 1.12 | – | – | – | 1.004 | –

O=C(O)CCl
Settings | viscosity [mPa·s]
323.15 K, 101 kPa | 3.091

ClC(Cl)Cl
Settings | viscosity
293.15 K, 101.33 kPa | 0.5659 mPa·s
293.16 K, 101 kPa | 0.563 mPa·s
298 K, 101 kPa | 0.5427 mPa·s
298 K, 101.33 kPa | 0.538 mPa·s
298.16 K, 101 kPa | 0.542 mPa·s
303 K, 101.3 kPa | 0.5254 mPa·s and 0.5249 mPa·s
303 K, 101.33 kPa | 0.517 mPa·s
303.15 K, 101.3 kPa | 0.5129 mPa·s and 0.5129 mPa·s and 0.5033 mPa·s
303.15 K, 101.33 kPa | 0.514 mPa·s and 0.471 mPa·s
303.16 K, 101 kPa | 0.514 mPa·s
303.75 K, 101 kPa | 0.5393 mPa·s
308 K, 101 kPa | 0.4881 mPa·s
308.15 K, 101 kPa | 0.482 mPa·s
308.15 K, 101.33 kPa | 0.452 mPa·s and 0.5065 mPa·s and 0.485 mPa·s
311 K, 101.3 kPa | 0.4893 mPa·s and 0.4893 mPa·s
313 K, 101.33 kPa | 0.479 mPa·s
313.15 K, 101 kPa | 0.472 mPa·s and 0.4891 mPa·s and 0.557 mPa·s
318 K, 101 kPa | 0.4487 mPa·s
318.15 K, 101.33 kPa | 0.442 mPa·s
319 K, 101.3 kPa | 0.4566 mPa·s and 0.4571 mPa·s
323 K, 101.33 kPa | 0.447 mPa·s
323.15 K, 101 kPa | 0.491 mPa·s
323.15 K, 101.33 kPa | 0.4473 mPa·s

CC[n+]1ccn(C)c1.COS(=O)(=O)[O-]
101 kPa
Settings | viscosity
293.15 K | 84.14 mPa·s
298.15 K | 84.3 mPa·s and 68.5 mPa·s
303.15 K | 68.7 mPa·s and 55.4 mPa·s and 57.93 mPa·s
308.15 K | 56.7 mPa·s and 45.5 mPa·s
313.15 K | 47.6 mPa·s and 37.9 mPa·s and 39.54 mPa·s
323.15 K | 28.33 mPa·s

FC(F)Cl
101 kPa
Settings | viscosity [mPa·s]
293.25 K | 0.1758
313.35 K | 0.1381

CCOCCOCC
101.33 kPa
Settings | viscosity [mPa·s]
298.15 K | 0.602
308.15 K | 0.522

CCCCCCCCCC(=O)OC
100 kPa
Settings | viscosity [mPa·s]
293.15 K | 2.115
298.15 K | 1.919
303.15 K | 1.745
318.15 K | 1.345
323.15 K | 1.243

CCn1cc[n+](C)c1.C[C@H](N)C(=O)[O-]
101 kPa
Settings | viscosity [mPa·s]
308.15 K | 137.5
313.15 K | 103.5

CCCCCCCCCC(=O)OC + CCCCCO
viscosity [mPa·s], [1]
Settings | x1 = 0.1 | x1 = 0.2 | x1 = 0.3 | x1 = 0.4 | x1 = 0.5 | x1 = 0.6 | x1 = 0.7 | x1 = 0.8001 | x1 = 0.9001
298.15 K | 2.764 | 2.385 | 2.169 | 2.028 | 1.946 | 1.892 | 1.866 | 1.859 | 1.875
303.15 K | 2.451 | 2.119 | 1.938 | 1.825 | 1.754 | 1.706 | 1.689 | 1.686 | 1.712
308.15 K | 2.158 | 1.892 | 1.741 | 1.646 | 1.588 | 1.549 | 1.535 | 1.536 | 1.555
313.15 K | 1.918 | 1.697 | 1.571 | 1.49 | 1.444 | 1.413 | 1.402 | 1.407 | 1.426
318.15 K | 1.713 | 1.529 | 1.423 | 1.358 | 1.32 | 1.293 | 1.288 | 1.292 | 1.312
323.15 K | 1.535 | 1.387 | 1.294 | 1.239 | 1.211 | 1.189 | 1.186 | 1.194 | 1.212
